Reference: US20250353891A1 (MEDIMMUNE LIMITED, priority 2022, published 2025)
Starred links: 1 amine or outer side, 2 acyl side, 3 side chain; linkers in the order of their positions; H or OH if unused. Non-standard residues stand in square brackets, D forms with d. Residues, ends and D or L forms follow the SMILES beside them. Groups on a side chain read outwards from the residue. *: point of attachment. C18 diacid = O=C(O)CCCCCCCCCCCCCCCCC(=O)*; γGlu = O=C(O)[C@H](CCC(=O)[*:2])N[*:1]; αMeF = C[C@](N)(Cc1ccccc1)C(=O)O; AEEA = NCCOCCOCC(=O)O; Aib = CC(C)(N)C(=O)O

Legend:
[1] = target: human glucagon receptor (hGCGR) (Homo sapiens, UniProt P47871); assay: cAMP production (HTRF) in CHO cells expressing hGCGR; type: cell-based; parameters: expressed in transfected cells; settings: Table 6, peptides modified at position 17; cAMP in CHO hGCGR cells; geometric mean; read-out: hGluc-R EC50
Procedure, shortened: (§1)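 Potency values represent EC50 from 4-parameter logistic curves of HTRF % Delta F signal. Receptor-expressing CHO cells (hGCGR 2×10^5 cells/mL, hGLP-1R 1×10^5 cells/mL) were exposed for 30 min at room temperature before two-step cAMP detection.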

[2] = target: human GLP-1 receptor (hGLP-1R) (Homo sapiens, UniProt P43220); assay: cAMP production (HTRF) in CHO cells expressing hGLP-1R; type: cell-based; parameters: expressed in transfected cells; settings: for EC50: Table 6, peptides modified at position 17, cAMP in CHO hGLP-1R cells, geometric mean, read-out: hGLP-1R EC50; for % Relative Potency Ratio: Table 6, % GLP-1R activity relative to GLP-1 / % GlucR activity relative to glucagon
Procedure, shortened: as §1

human glucagon receptor (hGCGR), sequence (P47871 26-477): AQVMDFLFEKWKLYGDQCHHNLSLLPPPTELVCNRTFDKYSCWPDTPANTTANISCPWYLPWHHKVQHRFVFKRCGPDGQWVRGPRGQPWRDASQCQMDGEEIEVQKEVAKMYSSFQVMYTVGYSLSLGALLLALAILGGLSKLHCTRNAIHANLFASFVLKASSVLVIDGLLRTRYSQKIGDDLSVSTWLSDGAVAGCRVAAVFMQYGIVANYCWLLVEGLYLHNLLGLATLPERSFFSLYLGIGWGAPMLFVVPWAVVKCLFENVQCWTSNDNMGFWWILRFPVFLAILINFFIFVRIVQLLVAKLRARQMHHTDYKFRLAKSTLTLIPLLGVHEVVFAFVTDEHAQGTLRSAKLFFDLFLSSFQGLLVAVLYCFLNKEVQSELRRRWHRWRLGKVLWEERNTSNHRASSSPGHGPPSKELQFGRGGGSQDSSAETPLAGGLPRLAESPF
human GLP-1 receptor (hGLP-1R), sequence (P43220 24-463): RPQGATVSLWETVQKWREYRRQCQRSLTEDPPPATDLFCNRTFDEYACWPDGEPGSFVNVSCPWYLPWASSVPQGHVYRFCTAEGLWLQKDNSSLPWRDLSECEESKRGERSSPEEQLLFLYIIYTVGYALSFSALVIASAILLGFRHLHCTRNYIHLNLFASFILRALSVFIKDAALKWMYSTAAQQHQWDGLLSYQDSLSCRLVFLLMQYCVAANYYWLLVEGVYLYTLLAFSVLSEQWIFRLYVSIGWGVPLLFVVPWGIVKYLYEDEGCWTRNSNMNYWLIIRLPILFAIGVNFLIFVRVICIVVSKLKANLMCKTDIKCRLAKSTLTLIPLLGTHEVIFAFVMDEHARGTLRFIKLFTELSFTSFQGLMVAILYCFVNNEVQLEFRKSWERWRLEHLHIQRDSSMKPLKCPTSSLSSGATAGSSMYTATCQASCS

Row | Compound | EC50 [1] [nM] | EC50 [2] [nM] | % Relative Potency Ratio [2]
1 | CC(C)C[C@H](NC(=O)[C@H](Cc1c[nH]c2ccccc12)NC(=O)[C@H](CCC(N)=O)NC(=O)[C@@H](NC(=O)[C@H](Cc1ccccc1)NC(=O)[C@H](CC(=O)O)NC(=O)[C@H](CCCNC(=N)N)NC(=O)[C@H](C)NC(=O)[C@H](CCCNC(=N)N)NC(=O)[C@H](CCCCNC(=O)COCCOCCNC(=O)COCCOCCNC(=O)CC[C@H](NC(=O)CCCCCCCCCCCCCCCCCCC(=O)O)C(=O)O)NC(=O)[C@@H](NC(=O)[C@H](CC(=O)O)NC(=O)[C@H](CC(C)C)NC(=O)[C@](C)(Cc1ccccc1)NC(=O)[C@H](CCCCN)NC(=O)[C@H](CO)NC(=O)[C@@H](NC(=O)[C@H](CC(=O)O)NC(=O)[C@H](CO)NC(=O)[C@@H](NC(=O)[C@H](Cc1ccccc1)NC(=O)[C@@H](NC(=O)CNC(=O)[C@H](CCC(N)=O)NC(=O)C(C)(C)NC(=O)[C@@H](N)Cc1c[nH]cn1)[C@@H](C)O)[C@@H](C)O)C(C)C)[C@@H](C)O)C(C)C)C(=O)N[C@@H](CC(C)C)C(=O)N[C@@H](CCC(=O)O)C(=O)NC(C)(C)C(=O)NCC(N)=O [Peptide 457] | 0.203 | 0.109 | 3.7
2 | CC(C)C[C@H](NC(=O)[C@H](Cc1c[nH]c2ccccc12)NC(=O)[C@H](CCC(N)=O)NC(=O)[C@@H](NC(=O)[C@H](Cc1ccccc1)NC(=O)[C@H](CC(=O)O)NC(=O)[C@H](CCCNC(=N)N)NC(=O)[C@H](C)NC(=O)[C@H](CCCNC(=N)N)NC(=O)[C@H](CCCCNC(=O)COCCOCCNC(=O)COCCOCCNC(=O)CC[C@H](NC(=O)CC[C@H](NC(=O)CCCCCCCCCCCCCCCCCCC(=O)O)C(=O)O)C(=O)O)NC(=O)[C@@H](NC(=O)[C@H](CC(=O)O)NC(=O)[C@H](CC(C)C)NC(=O)[C@](C)(Cc1ccccc1)NC(=O)[C@H](CCCCN)NC(=O)[C@H](CO)NC(=O)[C@@H](NC(=O)[C@H](CC(=O)O)NC(=O)[C@H](CO)NC(=O)[C@@H](NC(=O)[C@H](Cc1ccccc1)NC(=O)[C@@H](NC(=O)CNC(=O)[C@H](CCC(N)=O)NC(=O)C(C)(C)NC(=O)[C@@H](N)Cc1c[nH]cn1)[C@@H](C)O)[C@@H](C)O)C(C)C)[C@@H](C)O)C(C)C)C(=O)N[C@@H](CC(C)C)C(=O)N[C@@H](CCC(=O)O)C(=O)NC(C)(C)C(=O)NCC(N)=O [Peptide 458] | 0.385 | 0.114 | 6.7
3 | CC(C)C[C@H](NC(=O)[C@H](CC(C)C)NC(=O)[C@H](Cc1c[nH]c2ccccc12)NC(=O)[C@H](CCCNC(=N)N)NC(=O)[C@@H](NC(=O)[C@H](Cc1ccccc1)NC(=O)[C@H](CC(=O)O)NC(=O)[C@H](CCC(N)=O)NC(=O)[C@H](C)NC(=O)[C@H](CCCNC(=N)N)NC(=O)[C@H](CCCCNC(=O)COCCOCCNC(=O)COCCOCCNC(=O)CC[C@H](NC(=O)CCCCCCCCCCCCCCCCC(=O)O)C(=O)O)NC(=O)[C@H](CCCCN)NC(=O)[C@H](CC(=O)O)NC(=O)[C@H](CC(C)C)NC(=O)[C@](C)(Cc1ccccc1)NC(=O)[C@H](CCCCN)NC(=O)[C@H](CO)NC(=O)[C@@H](NC(=O)[C@H](CC(=O)O)NC(=O)[C@H](CO)NC(=O)[C@@H](NC(=O)[C@H](Cc1ccccc1)NC(=O)[C@@H](NC(=O)CNC(=O)[C@H](CCC(N)=O)NC(=O)C(C)(C)NC(=O)[C@@H](N)Cc1c[nH]cn1)[C@@H](C)O)[C@@H](C)O)C(C)C)C(C)C)C(=O)N[C@@H](C)C(=O)N[C@@H](CCC(=O)O)C(N)=O [Peptide 459] (H-H[Aib]QGTFTSDVSK[αMeF]LDKK([AEEA-AEEA-γGlu-C18 diacid])RAQDFVRWLLAE-NH2) | 0.0369 | 0.0327 | 2.2
4 | CC(C)C[C@H](NC(=O)[C@H](CC(C)C)NC(=O)[C@H](Cc1c[nH]c2ccccc12)NC(=O)[C@H](CCCNC(=N)N)NC(=O)[C@@H](NC(=O)[C@H](Cc1ccccc1)NC(=O)[C@H](CC(=O)O)NC(=O)[C@H](CCC(N)=O)NC(=O)[C@H](C)NC(=O)[C@H](CCCNC(=N)N)NC(=O)[C@H](CCCCNC(=O)COCCOCCNC(=O)COCCOCCNC(=O)CC[C@H](NC(=O)CCCCCCCCCCCCCCCCCCC(=O)O)C(=O)O)NC(=O)[C@H](CCCCN)NC(=O)[C@H](CC(=O)O)NC(=O)[C@H](CC(C)C)NC(=O)[C@](C)(Cc1ccccc1)NC(=O)[C@H](CCCCN)NC(=O)[C@H](CO)NC(=O)[C@@H](NC(=O)[C@H](CC(=O)O)NC(=O)[C@H](CO)NC(=O)[C@@H](NC(=O)[C@H](Cc1ccccc1)NC(=O)[C@@H](NC(=O)CNC(=O)[C@H](CCC(N)=O)NC(=O)C(C)(C)NC(=O)[C@@H](N)Cc1c[nH]cn1)[C@@H](C)O)[C@@H](C)O)C(C)C)C(C)C)C(=O)N[C@@H](C)C(=O)N[C@@H](CCC(=O)O)C(N)=O [Peptide 460] | 0.0665 | 0.117 | 1.1
5 | CC(C)C[C@H](NC(=O)[C@H](CC(C)C)NC(=O)[C@H](Cc1c[nH]c2ccccc12)NC(=O)[C@H](CCC(N)=O)NC(=O)[C@@H](NC(=O)[C@H](Cc1ccccc1)NC(=O)[C@H](CC(=O)O)NC(=O)[C@H](CCCNC(=N)N)NC(=O)[C@H](C)NC(=O)[C@H](CCCNC(=N)N)NC(=O)[C@H](CCCCNC(=O)COCCOCCNC(=O)COCCOCCNC(=O)CC[C@H](NC(=O)CCCCCCCCCCCCCCCCC(=O)O)C(=O)O)NC(=O)[C@@H](NC(=O)[C@H](CC(=O)O)NC(=O)[C@H](CC(C)C)NC(=O)[C@](C)(Cc1ccccc1)NC(=O)[C@H](CCCCN)NC(=O)[C@H](CO)NC(=O)[C@@H](NC(=O)[C@H](CC(=O)O)NC(=O)[C@H](CO)NC(=O)[C@@H](NC(=O)[C@H](Cc1ccccc1)NC(=O)[C@@H](NC(=O)CNC(=O)[C@H](CCC(N)=O)NC(=O)C(C)(C)NC(=O)[C@@H](N)Cc1c[nH]cn1)[C@@H](C)O)[C@@H](C)O)C(C)C)[C@@H](C)O)C(C)C)C(=O)N[C@@H](CCC(=O)O)C(=O)N[C@@H](C)C(=O)NCC(=O)O [Peptide 462] (H-H[Aib]QGTFTSDVSK[αMeF]LDTK([AEEA-AEEA-γGlu-C18 diacid])RARDFVQWLLEAG-OH; N-terminus assumed) | 0.0892 | 0.0395 | 4.5
6 | CC(C)C[C@H](NC(=O)[C@H](CC(=O)O)NC(=O)[C@H](CC(C)C)NC(=O)[C@](C)(Cc1ccccc1)NC(=O)[C@H](CCCCN)NC(=O)[C@H](CO)NC(=O)[C@@H](NC(=O)[C@H](CC(=O)O)NC(=O)[C@H](CO)NC(=O)[C@@H](NC(=O)[C@H](Cc1ccccc1)NC(=O)[C@@H](NC(=O)CNC(=O)[C@H](CCC(N)=O)NC(=O)C(C)(C)NC(=O)[C@@H](N)Cc1c[nH]cn1)[C@@H](C)O)[C@@H](C)O)C(C)C)C(=O)N[C@@H](CCCCNC(=O)COCCOCCNC(=O)COCCOCCNC(=O)CC[C@H](NC(=O)CC[C@H](NC(=O)CCCCCCCCCCCCCCCCC(=O)O)C(=O)O)C(=O)O)C(=O)N[C@@H](CCCNC(=N)N)C(=O)N[C@@H](C)C(=O)N[C@@H](CCC(N)=O)C(=O)N[C@@H](CC(=O)O)C(=O)N[C@@H](Cc1ccccc1)C(=O)N[C@H](C(=O)N[C@@H](CCC(N)=O)C(=O)N[C@@H](Cc1c[nH]c2ccccc12)C(=O)N[C@@H](CC(C)C)C(=O)N[C@@H](CC(C)C)C(=O)NC(C)(C)C(=O)N[C@H](C(=O)O)[C@@H](C)O)C(C)C [Peptide 465] (H-H[Aib]QGTFTSDVSK[αMeF]LDLK([AEEA-AEEA-γGlu-γGlu-C18 diacid])RAQDFVQWLL[Aib]T-OH; N-terminus assumed) | 0.436 | 0.485 | 1.8
7 | CC(C)C[C@H](NC(=O)[C@H](Cc1c[nH]c2ccccc12)NC(=O)[C@H](CCC(N)=O)NC(=O)[C@@H](NC(=O)[C@H](Cc1ccccc1)NC(=O)[C@H](CC(=O)O)NC(=O)[C@H](CCC(N)=O)NC(=O)[C@H](C)NC(=O)[C@H](CCCNC(=N)N)NC(=O)[C@H](CCCCNC(=O)COCCOCCNC(=O)COCCOCCNC(=O)CC[C@H](NC(=O)CCCCCCCCCCCCCCCCC(=O)O)C(=O)O)NC(=O)[C@@H](NC(=O)[C@H](CC(=O)O)NC(=O)[C@H](CC(C)C)NC(=O)[C@](C)(Cc1ccccc1)NC(=O)[C@H](CCCCN)NC(=O)[C@H](CO)NC(=O)[C@@H](NC(=O)[C@H](CC(=O)O)NC(=O)[C@H](CO)NC(=O)[C@@H](NC(=O)[C@H](Cc1ccccc1)NC(=O)[C@@H](NC(=O)CNC(=O)[C@H](CCC(N)=O)NC(=O)C(C)(C)NC(=O)[C@@H](N)Cc1c[nH]cn1)[C@@H](C)O)[C@@H](C)O)C(C)C)[C@@H](C)O)C(C)C)C(=O)N[C@@H](CC(C)C)C(=O)N[C@@H](CCC(=O)O)C(=O)NC(C)(C)C(=O)NCC(N)=O [Peptide 466] (H-H[Aib]QGTFTSDVSK[αMeF]LDTK([AEEA-AEEA-γGlu-C18 diacid])RAQDFVQWLLE[Aib]G-NH2; N-terminus assumed) | 0.131 | 0.0356 | 7.3
8 | CC(C)C[C@H](NC(=O)[C@H](Cc1c[nH]c2ccccc12)NC(=O)[C@H](CCC(N)=O)NC(=O)[C@@H](NC(=O)[C@H](Cc1ccccc1)NC(=O)[C@H](CC(=O)O)NC(=O)[C@H](CCC(N)=O)NC(=O)[C@H](C)NC(=O)[C@H](CCCNC(=N)N)NC(=O)[C@H](CCCCNC(=O)COCCOCCNC(=O)COCCOCCNC(=O)CC[C@H](NC(=O)CC[C@H](NC(=O)CCCCCCCCCCCCCCCCC(=O)O)C(=O)O)C(=O)O)NC(=O)[C@@H](NC(=O)[C@H](CC(=O)O)NC(=O)[C@H](CC(C)C)NC(=O)[C@](C)(Cc1ccccc1)NC(=O)[C@H](CCCCN)NC(=O)[C@H](CO)NC(=O)[C@@H](NC(=O)[C@H](CC(=O)O)NC(=O)[C@H](CO)NC(=O)[C@@H](NC(=O)[C@H](Cc1ccccc1)NC(=O)[C@@H](NC(=O)CNC(=O)[C@H](CCC(N)=O)NC(=O)C(C)(C)NC(=O)[C@@H](N)Cc1c[nH]cn1)[C@@H](C)O)[C@@H](C)O)C(C)C)[C@@H](C)O)C(C)C)C(=O)N[C@@H](CC(C)C)C(=O)N[C@@H](CCC(=O)O)C(=O)NC(C)(C)C(=O)NCC(N)=O [Peptide 468] | 0.292 | 0.0675 | 8.6
